Assay results reported in paper PMC9785777, “Antidiabetic Potential of Novel 1,3,5-Trisubstituted-2-Thioxoimidazloidin-4-One Analogues: Insights into α-Glucosidase, α-Amylase, and Antioxidant Activities” (Pharmaceuticals, 2022).
pIC50: −log10 of the molar value. ≈ marks a conversion by molar mass, not a printed value.

What was measured:
[1] = MTT cytotoxicity assay against WI-38 cells; assay type: cell-based, human; conditions: human, WI-38 lung fibroblast cells; for viability at 48 h, 4 µg/mL: 4 µg/mL (log conc. 0.602); for viability at 48 h, 16 µg/mL: 16 µg/mL (log conc. 1.204); for viability at 48 h, 63 µg/mL: 63 µg/mL (log conc. 1.799); for viability at 48 h, 250 µg/mL: 250 µg/mL (log conc. 2.398); for viability at 48 h, 1000 µg/mL: 1000 µg/mL (log conc. 3); for IC50 at 48 h: MTT
Experimental: Based on the promising dual inhibitory activity of this class of compounds, we next evaluated the cytotoxicity of compounds 5a and 7a against human lung fibroblast cell line WI-38 in order to gain insights into the toxicity of this class of compounds utilizing the MTT assay. In this regard, lung fibroblast cells were cultured and treated with compounds 5a and 7a for 48 h at different concentrations (1000, 250, 63, 16, and 4 µg/mL). After the cells were washed, they were treated with MTT solution and the absorption was assessed using an ELISA reader at 570 nm. As a pharmacological reference drug, Celecoxib, a well-known anti-inflammatory agent, was utilized.
The cytotoxicity of compounds 5a and 7a was assessed toward the human lung fibroblast WI-38 cell line (Sigma-Aldrich, St. Louis, MO, USA, product number 90020107) using MTT assay. The MTT test assay was performed in accordance with the previously stated procedure. MTT (3-(4,5-dimethylthiazol-2-yl)-2,5-diphenyl tetrazolium bromide; Sigma catalog no. M2128) was dissolved in PBS at 5 mg/mL and processed to eliminate the insoluble residues. Briefly, cells (10^5 cells/well) were treated for 48 h at 37 °C with compounds 5a and 7a at varied doses (1000, 250, 63, 16, and 4 µg/mL, DMSO stock solutions) in a 5% CO2 atmosphere. In our assessment, celecoxib, an inhibitor of cyclooxygenase 2, was employed as a standard reference drug. Following cell washing, MTT solution (180 µL/well) was applied to the cells and incubated at 37 °C for 4 h with shaking, and the absorbance was measured using an ELISA reader at 570 nm.

[2] = molecular target: T1, α-glucosidase enzyme (EC3.2.1.20) (Saccharomyces cerevisiae, UniProt P53341); experiment: biochemical; conditions: for inhibition at 1 µg/mL / inhibition at 10 µg/mL / inhibition at 100 µg/mL / inhibition at 1000 µg/mL: read-out: % inhibition of α-glucosidase
T1 construct: purchased Sigma-Aldrich
T1 sequence (P53341 whole entry): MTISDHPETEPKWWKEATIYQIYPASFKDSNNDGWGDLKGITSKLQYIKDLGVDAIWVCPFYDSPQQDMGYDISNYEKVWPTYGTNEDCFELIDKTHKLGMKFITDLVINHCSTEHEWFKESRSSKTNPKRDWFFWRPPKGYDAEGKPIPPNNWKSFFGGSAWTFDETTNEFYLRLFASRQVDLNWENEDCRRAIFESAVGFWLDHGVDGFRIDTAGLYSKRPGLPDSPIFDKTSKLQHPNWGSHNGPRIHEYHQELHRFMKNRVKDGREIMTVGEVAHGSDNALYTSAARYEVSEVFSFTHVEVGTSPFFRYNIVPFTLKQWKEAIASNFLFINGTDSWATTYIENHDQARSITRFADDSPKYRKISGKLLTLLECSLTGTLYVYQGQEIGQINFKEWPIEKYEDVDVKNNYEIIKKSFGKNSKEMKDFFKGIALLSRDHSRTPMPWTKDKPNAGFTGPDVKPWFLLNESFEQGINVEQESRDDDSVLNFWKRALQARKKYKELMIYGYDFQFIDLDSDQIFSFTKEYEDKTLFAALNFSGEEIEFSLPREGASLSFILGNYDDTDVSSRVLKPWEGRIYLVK
Description: The α-glucosidase enzyme is mainly expressed in the small intestine and catalyzes the breakdown of carbohydrates into glucose units by cleaving the glucosidic bonds. α-Glucosidase blockers are the first-line drugs for the treatment of non-insulin-dependent DM by suppressing carbohydrate hydrolysis and consequently retarding glucose absorption into the bloodstream and reducing postprandial hyperglycemia. α-Glucosidase is, thus, considered to be an attractive pharmaceutical target for the treatment of […] via control of the blood glucose levels. Accordingly, there is a continuous need to develop a potential class of α-glucosidase inhibitors. Toward this aim, we explored the potency of the synthesized compounds to inhibit the activity of α-glucosidase. We examined the inhibitory activity of the synthesized compounds following the reported assay by Peytam et al.. Thus, the compounds at different concentrations (1000, 100, 10, and 1 µg/mL) were incubated with α-glucosidase and subsequently […] was added and the absorbance was monitored at 405 nm. […] To further investigate the structural aspects of 1,3-thiohydantoin scaffold, a substitution at the N1-position with the methyl-proponate group was performed. […] Nevertheless, it has adverse gastrointestinal effects including diarrhea and flatulence. Thus, the discovery of a novel class of potent antidiabetic agents is urgently demanded.
An ELISA reader was used to assess the inhibition of α-glucosidase by 1,3,5-trisubstituted-2-thioxoimidazolidin-4-ones derivatives at various doses (1000, 100, 10, and 1 µg/mL) according to Peytam et al.. […] Then, the substrate (25 µL, 4 mM) was added to the mentioned mixture and allowed to incubate at 37 °C for 20 min. Finally, the change in absorbance at 405 nm was monitored using a Cytation 3 hybrid microplate reader (BioTek, Winooski, VT, USA). […] GraphPad prism 6.0 was used to calculate the IC50 values of the investigated compounds from the nonlinear regression curve (Systat Software, Inc. Tools for Science) (https://www.graphpad.com/scientific-software/prism/ (accessed on 1 September 2022)).

[3] = DPPH free radical scavenging assay; conditions: for DPPH free radical scavenging IC50: n = 4
Description: The antioxidant capability of compounds 5a and 7a was estimated utilizing the DPPH (2,2-diphenyl-1- picrylhydrazyl) scavenging assay to assess the free radical scavenger activity. DPPH is a stable free radical substrate with a purple color which upon reaction with an antioxidant compound, converts into 1,1-diphenyl-2-picryl hydrazine, a […] compound. The DPPH assay is widely applied for the investigation of superoxide radical scavenging activity. In this regard, compounds 5a and 7a were incubated at different concentrations (3.12, 6.25, 12.5, 25, 50, 100, and 200 µg/mL) with DPPH substrate and the absorption was assessed by ELISA at 510 nm. In our investigations, Trolox, a water-soluble analogue of vitamin E, was applied as a standard antioxidant reference drug. […] Further, Qamar et al. synthesized and evaluated the antioxidant activity of some novel N3-substituted-2-thiohydantoins.
According to Valko et al., the ELISA approach was used to analyze the free-radical DPPH scavenging activity of compounds (5a and 7a) at different concentrations (3.12, 6.25, 12.5, 25, 50, 100, and 200 µg/mL). The DPPH assay assesses the hydrogen-donating activity and thus provides an evaluation of the antioxidant activity via estimating the DPPH free-radical scavenging activity. The color intensity of the reaction mixture was measured after a purple-colored stable free radical (DPPH) was reduced into the yellow-colored diphenylpicryl hydrazinem. Briefly, 200 µL of different concentrations of compounds 5a and 7a were mixed with 50 µL of DPPH (0.659 mM) solution, and the mixture was incubated at 25 °C for 20 min. The absorbance of the reaction mixture was estimated after incubation at 510 nm. In our investigations, trolox was employed as standard reference drug. A control reaction was performed, and the inhibitory efficiency of DPPH radical-scavenging activity was determined using the equation below: % Inhibition = (A0 − A1)/A0 × 100 (1) where A0 is absorbance of […] and A1 is the absorbance of the compound.

Structure (SMILES)	viability at 48 h, 4 µg/mL [1] [%]	viability at 48 h, 16 µg/mL [1] [%]	viability at 48 h, 63 µg/mL [1] [%]	viability at 48 h, 250 µg/mL [1] [%]	viability at 48 h, 1000 µg/mL [1] [%]	IC50 at 48 h [1] [µg/mL]	pIC50 [2]	inhibition at 1 µg/mL [2] [%]	inhibition at 10 µg/mL [2] [%]	inhibition at 100 µg/mL [2] [%]	inhibition at 1000 µg/mL [2] [%]	%RSA (DPPH radical scavenging activity) ([3]; 3.12 µg/mL) [%]	%RSA (DPPH radical scavenging activity) ([3]; 6.25 µg/mL) [%]	%RSA (DPPH radical scavenging activity) ([3]; 12.5 µg/mL) [%]	%RSA (DPPH radical scavenging activity) ([3]; 25 µg/mL) [%]	%RSA (DPPH radical scavenging activity) ([3]; 50 µg/mL) [%]	%RSA (DPPH radical scavenging activity) ([3]; 100 µg/mL) [%]	%RSA (DPPH radical scavenging activity) ([3]; 200 µg/mL) [%]	DPPH free radical scavenging IC50 [3] [µg/mL]
COC(=O)CCN1C(=S)N(N=C(C)c2ccccc2O)C(=O)C1=Cc1ccccc1O [Compound 5a, Methyl [5-(2-hydroxybenzylidene)-4-oxo-3-(2-hydroxyphenylethylidene)amino-2-thioxoimidazolidin-1-yl] propionate]	69	59.8	52.9	44.1	34.6	88.5 (≈ 201 µM)	4.94	35	58	75	86	12.8385	25.9268	34.2	49.2589	65.3256	84.0278	90.9673	51.75
COC(=O)CCN1C(=S)N(N=C(C)c2ccccc2O)C(=O)C1=Cc1ccccc1OC(C)=O [Compound 7a, Methyl [5-(2-acetoxybenzylidene)-4-oxo-3-(2-hydroxyphenylethylidene)amino-2-thioxoimidazolidin-1-yl] propionate]	73	60.6	53.4	44.1	36.6	109 (≈ 227 µM)	4.42	21.8	48.3	66.1	82.6	9.7382	18.9636	30.2839	45.4635	62.2992	81.6087	80.732	65.5
